The values that follow come from US10233173B2, “Substituted 1,2,3-triazoles as NR2B-selective NMDA modulators” (JANSSEN PHARMACEUTICA NV, priority 2016, dated 2019).

This assay has as its target human GluN1/GluN2B NMDA receptors (Homo sapiens, UniProt Q05586+Q13224). Nature of the assay: Cell-based calcium flux (FLIPR) assay on cloned human NR1/NR2B ion channels expressed in mammalian cells. The settings on record: standard assay; glutamate at ~EC80; FLIPR calcium flux. In outline:
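Calcium influx followed by FLIPR fluorescence after 5 min compound exposure and a further 5 min co-agonist challenge: 10 μM glycine with glutamate at ~EC80 (standard) or EC40 (HTS).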
(In general: Calcium assays in cells follow changes in intracellular calcium, usually with a dye or a luminescent sensor.)

Sequence of human GluN1/GluN2B NMDA receptors (Q13224 27-1484, other chains not shown): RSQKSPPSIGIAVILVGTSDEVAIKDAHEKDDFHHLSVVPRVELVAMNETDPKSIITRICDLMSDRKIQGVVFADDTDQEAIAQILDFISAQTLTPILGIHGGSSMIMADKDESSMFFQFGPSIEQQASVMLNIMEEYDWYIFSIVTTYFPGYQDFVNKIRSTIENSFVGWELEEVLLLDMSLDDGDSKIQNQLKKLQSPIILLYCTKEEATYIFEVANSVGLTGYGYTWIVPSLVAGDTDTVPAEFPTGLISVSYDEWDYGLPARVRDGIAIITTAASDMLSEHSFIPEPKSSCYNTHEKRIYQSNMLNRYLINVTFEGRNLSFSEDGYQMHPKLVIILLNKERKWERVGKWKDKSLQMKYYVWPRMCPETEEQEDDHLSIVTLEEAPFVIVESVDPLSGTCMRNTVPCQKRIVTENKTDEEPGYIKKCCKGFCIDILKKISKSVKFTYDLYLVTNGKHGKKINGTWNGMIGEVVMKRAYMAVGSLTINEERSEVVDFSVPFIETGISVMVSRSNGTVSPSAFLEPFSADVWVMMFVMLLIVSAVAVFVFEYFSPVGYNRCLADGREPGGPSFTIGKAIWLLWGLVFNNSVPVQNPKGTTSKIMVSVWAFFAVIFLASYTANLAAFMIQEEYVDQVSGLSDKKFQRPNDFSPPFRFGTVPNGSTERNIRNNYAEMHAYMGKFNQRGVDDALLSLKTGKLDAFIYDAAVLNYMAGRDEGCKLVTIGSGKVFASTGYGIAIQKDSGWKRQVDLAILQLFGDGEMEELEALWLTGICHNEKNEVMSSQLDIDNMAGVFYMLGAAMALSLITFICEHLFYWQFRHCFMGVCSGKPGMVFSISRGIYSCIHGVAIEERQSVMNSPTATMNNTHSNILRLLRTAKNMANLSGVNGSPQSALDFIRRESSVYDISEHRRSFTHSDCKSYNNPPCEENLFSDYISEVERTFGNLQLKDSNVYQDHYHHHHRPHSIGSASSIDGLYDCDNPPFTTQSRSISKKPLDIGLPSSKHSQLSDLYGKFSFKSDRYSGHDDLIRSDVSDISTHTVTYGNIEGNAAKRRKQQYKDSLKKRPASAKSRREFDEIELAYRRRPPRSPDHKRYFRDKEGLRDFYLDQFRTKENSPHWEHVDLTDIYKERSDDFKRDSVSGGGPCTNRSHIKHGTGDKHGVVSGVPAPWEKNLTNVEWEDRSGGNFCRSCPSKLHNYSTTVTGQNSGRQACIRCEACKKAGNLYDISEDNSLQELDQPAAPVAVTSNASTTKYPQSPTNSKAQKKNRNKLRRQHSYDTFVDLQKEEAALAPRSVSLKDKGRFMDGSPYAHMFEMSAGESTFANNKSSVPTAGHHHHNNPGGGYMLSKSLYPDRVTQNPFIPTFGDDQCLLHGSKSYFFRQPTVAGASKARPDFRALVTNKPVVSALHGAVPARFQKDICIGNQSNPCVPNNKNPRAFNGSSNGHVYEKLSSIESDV

For `Cc1c(F)ccc(-n2cc(COc3ncc(C4CC4)cn3)nn2)c1F` [Example 647, 5-Cyclopropyl-2-[[1-(2,4-difluoro-3-methyl-phenyl)triazol-4-yl]methoxy]pyrimidine], the IC50 (usually the concentration at which inhibition is half-maximal) is 0.034 µM.

With `Cc1c(F)ccc(-n2cc(COc3nccc(C4CC4)n3)nn2)c1F` [Example 648, 4-Cyclopropyl-2-[[1-(2,4-difluoro-3-methyl-phenyl)triazol-4-yl]methoxy]pyrimidine], the IC50 turned out to be 0.592 µM.

As to `Cc1nc(OCc2cn(-c3ccc(F)c(C)c3F)nn2)ncc1F` [Example 649, 2-[[1-(2,4-Difluoro-3-methyl-phenyl)triazol-4-yl]methoxy]-5-fluoro-4-methyl-pyrimidine], the IC50 came out at 0.152 µM.

Turning to `Cc1nc(OCc2cn(-c3ccc(F)c(C)c3F)nn2)ncc1Cl` [Example 650, 5-Chloro-2-[[1-(2,4-difluoro-3-methyl-phenyl)triazol-4-yl]methoxy]-4-methyl-pyrimidine], the IC50 came to 0.005 µM.

Regarding `Cc1cnc(OCc2cn(-c3ccc(F)c(C)c3F)nn2)nc1N` [Example 651, 2-[[1-(2,4-Difluoro-3-methyl-phenyl)triazol-4-yl]methoxy]-5-methyl-pyrimidin-4-amine], the IC50 turned out to be 0.262 µM.

For the molecule `Fc1ccc(-n2cc(COc3ncc(C(F)(F)F)cn3)nn2)c(F)c1C(F)F` [Example 652, 2-[[1-[3-(Difluoromethyl)-2,4-difluoro-phenyl]triazol-4-yl]methoxy]-5-(trifluoromethyl)pyrimidine], the IC50 was found to be 0.112 µM.

In the case of `Cc1cc(-n2cc(COc3ncc(Cl)cn3)nn2)c(F)cc1F` [Example 653, 5-Chloro-2-[[1-(2,4-difluoro-5-methyl-phenyl)triazol-4-yl]methoxy]pyrimidine], the IC50 was determined as 1.49 µM.

As to `Cc1cnc(OCc2cn(-c3cc(C)c(F)cc3F)nn2)nc1` [Example 654, 2-[[1-(2,4-Difluoro-5-methyl-phenyl)triazol-4-yl]methoxy]-5-methyl-pyrimidine], the IC50 is 0.979 µM.

On to `CCc1cnc(OCc2cn(-c3cc(C)c(F)cc3F)nn2)nc1` [Example 655, 2-[[1-(2,4-Difluoro-5-methyl-phenyl)triazol-4-yl]methoxy]-5-ethyl-pyrimidine], for which the IC50 stood at 0.507 µM.

Take `Cc1cc(-n2cc(COc3ncc(C(F)F)cn3)nn2)c(F)cc1F` [Example 656, 5-(Difluoromethyl)-2-[[1-(2,4-difluoro-5-methyl-phenyl)triazol-4-yl]methoxy]pyrimidine]: the IC50 was determined as 1.51 µM.

Consider `Cc1cc(-n2cc(COc3ncc(Cl)c(C)n3)nn2)c(F)cc1F` [Example 657, 5-Chloro-2-[[1-(2,4-difluoro-5-methyl-phenyl)triazol-4-yl]methoxy]-4-methyl-pyrimidine], for which the IC50 is 0.781 µM.

Turning to `Cc1cc(-n2cc(COc3ncc(C4CC4)cn3)nn2)c(F)cc1F` [Example 658, 5-Cyclopropyl-2-[[1-(2,4-difluoro-5-methyl-phenyl)triazol-4-yl]methoxy]pyrimidine], the IC50 came out at 0.424 µM.

As to `Cc1cccc(-n2cc(COc3ncc(Cl)cn3)nn2)n1` [Example 659, 5-Chloro-2-[[1-(6-methyl-2-pyridyl)triazol-4-yl]methoxy]pyrimidine], the IC50 is above 2.99 µM.

`CCc1cnc(OCc2cn(-c3cccc(C)n3)nn2)nc1` [Example 660, 5-Ethyl-2-[[1-(6-methyl-2-pyridyl)triazol-4-yl]methoxy]pyrimidine]: the IC50 was above 2.99 µM.

On to `Cc1cccc(-n2cc(COc3ncc(Cl)c(C)n3)nn2)n1` [Example 661, 5-Chloro-4-methyl-2-[[1-(6-methyl-2-pyridyl)triazol-4-yl]methoxy]pyrimidine], for which the IC50 was above 2.99 µM.

On to `Cc1cnc(OCc2cn(-c3cc(C)ccn3)nn2)nc1` [Example 662, 5-Methyl-2-[[1-(4-methyl-2-pyridyl)triazol-4-yl]methoxy]pyrimidine], for which the IC50 is above 2.99 µM.

Consider `CCc1cnc(OCc2cn(-c3cc(C)ccn3)nn2)nc1` [Example 663, 5-Ethyl-2-[[1-(4-methyl-2-pyridyl)triazol-4-yl]methoxy]pyrimidine], for which the IC50 came to 2.45 µM.

For the molecule `CCc1cnc(OCc2cn(-c3ccnc(C)c3)nn2)nc1` [Example 664, 5-Ethyl-2-[[1-(2-methyl-4-pyridyl)triazol-4-yl]methoxy]pyrimidine], the IC50 is 0.169 µM.

Turning to `CCc1cnc(OCc2cn(-c3ccnc(Br)c3)nn2)nc1` [Example 665, 2-[[1-(2-Bromo-4-pyridyl)triazol-4-yl]methoxy]-5-ethyl-pyrimidine], the IC50 stood at 0.261 µM.

Take `Cc1cnc(OCc2cn(-c3ccnc(C(F)(F)F)c3)nn2)nc1` [Example 666, 5-Methyl-2-[[1-[2-(trifluoromethyl)-4-pyridyl]triazol-4-yl]methoxy]pyrimidine]: the IC50 was 0.668 µM.

For `CCc1cnc(OCc2cn(-c3ccnc(C(F)(F)F)c3)nn2)nc1` [Example 667, 5-Ethyl-2-[[1-[2-(trifluoromethyl)-4-pyridyl]triazol-4-yl]methoxy]pyrimidine], the IC50 worked out at 0.184 µM.

Regarding `Cc1nc(OCc2cn(-c3ccc(C(F)(F)F)s3)nn2)ncc1F` [Example 668, 5-Fluoro-4-methyl-2-((1-(5-(trifluoromethyl)thiophen-2-yl)-1H-1,2,3-triazol-4-yl)methoxy)pyrimidine], the IC50 stood at 0.008 µM.

As to `COc1cnc(OCc2cn(-c3ccc(C(F)(F)F)s3)nn2)nc1` [Example 669, 5-Methoxy-2-((1-(5-(trifluoromethyl)thiophen-2-yl)-1H-1,2,3-triazol-4-yl)methoxy)pyrimidine], the IC50 stood at 0.004 µM.

Regarding `FC(F)(F)c1cnc(OCc2cn(-c3ccc(C(F)(F)F)s3)nn2)nc1` [Example 670, 5-(Trifluoromethyl)-2-((1-(5-(trifluoromethyl)thiophen-2-yl)-1H-1,2,3-triazol-4-yl)methoxy)pyrimidine], the IC50 was determined as 0.063 µM.

Take `Fc1ccc(-n2cc(COc3nccc(NC4COC4)n3)nn2)cc1OC(F)F` [Example 671, 2-((1-(3-(Difluoromethoxy)-4-fluorophenyl)-1H-1,2,3-triazol-4-yl)methoxy)-N-(oxetan-3-yl)pyrimidin-4-amine]: the IC50 was 0.126 µM.

As to `Fc1ccc(-n2cc(COc3nccc(-c4ccc[nH]4)n3)nn2)cc1OC(F)F` [Example 681, 2-((1-(3-(Difluoromethoxy)-4-fluorophenyl)-1H-1,2,3-triazol-4-yl)methoxy)-4-(1H-pyrrol-2-yl)pyrimidine], the IC50 came out at 0.681 µM.

For `Fc1ccc(-n2cc(COc3nccc(NC4CC4)n3)nn2)cc1C(F)F` [Example 690, N-Cyclopropyl-2-((1-(3-(difluoromethyl)-4-fluorophenyl)-1H-1,2,3-triazol-4-yl)methoxy)pyrimidin-4-amine], the IC50 amounted to 0.008 µM.

Consider `CCNc1ccnc(OCc2cn(-c3ccc(F)c(C(F)F)c3)nn2)n1` [Example 691, N-Ethyl-2-((1-(3-(difluoromethyl)-4-fluorophenyl)-1H-1,2,3-triazol-4-yl)methoxy)pyrimidin-4-amine], for which the IC50 came to 0.006 µM.

For the molecule `Cc1nccn1-c1ccnc(OCc2cn(-c3ccc(F)c(C(F)F)c3)nn2)n1` [Example 692, 2-((1-(3-(Difluoromethyl)-4-fluorophenyl)-1H-1,2,3-triazol-4-yl)methoxy)-4-(2-methyl-1H-imidazol-1-yl)pyrimidine], the IC50 came to 1.58 µM.

On to `CC(F)(F)c1ccnc(OCc2cn(-c3ccc(F)c(C(F)F)c3)nn2)n1` [Example 696, 4(1,1-Difluoroethyl)-2-((1-(3-(difluoromethyl)-4-fluorophenyl)-1H-1,2,3-triazol-4-yl)methoxy)pyrimidine], for which the IC50 came to 0.958 µM.

With `Fc1ccc(-n2cc(COc3nccc(-n4cccn4)n3)nn2)cc1C(F)F` [Example 699, 2-((1-(3-(Difluoromethyl)-4-fluorophenyl)-1H-1,2,3-triazol-4-yl)methoxy)-4-(1H-pyrazol-1-yl)pyrimidine], the IC50 was found to be 0.389 µM.

Consider `CC(F)(F)c1cnc(OCc2cn(-c3ccc(F)c(C(F)F)c3)nn2)nc1` [Example 701, 5-(1,1-Difluoroethyl)-2-((1-(3-(difluoromethyl)-4-fluorophenyl)-1H-1,2,3-triazol-4-yl)methoxy)pyrimidine], for which the IC50 came to 0.958 µM.

For `CCOCc1ccnc(OCc2cn(-c3ccc(F)c(OC(F)F)c3)nn2)n1` [Example 711, 2-((1-(3-(Difluoromethoxy)-4-fluorophenyl)-1H-1,2,3-triazol-4-yl)methoxy)-4-(ethoxymethyl)pyrimidine], the IC50 came to 0.043 µM.

Take `Fc1ccc(-n2cc(COc3nccc(COCC(F)F)n3)nn2)cc1OC(F)F` [Example 716, 4-((2,2-Difluoroethoxy)methyl)-2-((1-(3-(difluoromethoxy)-4-fluorophenyl)-1H-1,2,3-triazol-4-yl)methoxy)pyrimidine]: the IC50 worked out at 0.049 µM.
